Reference: patent US9006228B2 (Merck Sharp & Dohme Corp., priority 2011, dated 2015)

Each molecule was assayed against T1, human GPR119 (Homo sapiens, UniProt Q8TDV5) (assay: Measurement of GPR119 signaling (cAMP assay; LANCE kit or HTRF) in HEK293 cells stably transfected with human GPR119). Conditions: agonist-stimulated cAMP in HEK293 cells expressing human GPR119.
T1 sequence (Q8TDV5 1-308 limits assumed): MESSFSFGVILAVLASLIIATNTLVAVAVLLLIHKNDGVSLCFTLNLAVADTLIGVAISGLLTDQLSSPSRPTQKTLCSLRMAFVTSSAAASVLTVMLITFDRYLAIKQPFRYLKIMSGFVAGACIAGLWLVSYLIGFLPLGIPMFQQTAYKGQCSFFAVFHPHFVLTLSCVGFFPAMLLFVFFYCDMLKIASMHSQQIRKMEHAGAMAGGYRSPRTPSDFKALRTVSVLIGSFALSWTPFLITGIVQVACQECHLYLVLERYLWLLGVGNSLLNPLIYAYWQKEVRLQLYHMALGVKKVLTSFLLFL
Format: cell-based
How it was run: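 LANCE method: cAMP detected with Eu-chelate/biotin-cAMP tracer, 3 h, read at 665 nm, converted via cAMP standards; basal from DMSO, maximum from internal agonist, 4-parameter fit.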

Structure (SMILES)	EC50 [nM]
CS(=O)(=O)c1c(F)cc(COC[C@@H]2C[C@@H]2C2CCN(c3ncc(C4CC4)cn3)CC2)cc1F [Example 48, 5-cyclopropyl-2-{4-[(1R,2R)-2-({[3,5-difluoro-4-(methylsulfonyl)benzyl]oxy}methyl)cyclopropyl]piperidin-1-yl}pyrimidine]	0.6
CC(C)c1noc(N2CCC([C@H]3C[C@H]3COCc3ccc(CC(=O)N4CC(O)C4)c(F)c3)CC2)n1 [Example 143, 2-(2-fluoro-4-((((1R,2R)-2-(1-(3-isopropyl-1,2,4-oxadiazol-5-yl)piperidin-4-yl)cyclopropyl)methoxy)methyl)phenyl)-1-(3-hydroxyazetidin-1-yl)ethanone]	6.3
CCc1cnc(N2CCC([C@H]3C[C@H]3COCc3ccc(-n4cnnn4)cn3)CC2)nc1 [Example 133, 2-(4-((1R,2R)-2-(((5-(1H-tetrazol-1-yl)pyridin-2-yl)methoxy)methyl)cyclopropyl)piperidin-1-yl)-5-ethylpyrimidine]	5.6
O=S(=O)(c1ccc(COC[C@@H]2C[C@@H]2C2CCN(c3nc(C4CC4)no3)CC2)cc1)C1CC1 [Example 28, 1-(3-cyclopropyl-1,2,4-oxadiazol-5-yl)-4-[(1R,2R)-2-({[4-(cyclopropylsulfonyl)benzyl]oxy}methyl)cyclopropyl]piperidine]	12
CS(=O)(=O)c1ccc(COC[C@@H]2C[C@@H]2C2CCN(c3ncc(F)cn3)CC2)c(F)c1 [Example 69]	2.4
CC(C)(O)c1cnc(N2CCC([C@H]3C[C@H]3COCc3ccc(S(C)(=O)=O)cc3F)CC2)nc1 [Example 76]	15
CS(=O)(=O)c1ccc(COC[C@@H]2C[C@@H]2C2CCN(c3ncc(Cl)cn3)CC2)cc1 [Example 14, 5-chloro-2-{4-[(1R,2R)-2-({[4-(methylsulfonyl)benzyl]oxy}methyl)cyclopropyl]piperidin-1-yl}pyrimidine]	0.7
CCc1cnc(N2CCC([C@H]3C[C@H]3COCc3ccc(-c4cccnn4)cc3)CC2)nc1 [Example 122]	1.1
CCc1cnc(N2CCC([C@H]3C[C@H]3COCc3ccc(-c4ncco4)cc3)CC2)nc1 [Example 54, 5-ethyl-2-{4-[(1R,2R)-2-({[4-(1,3-oxazol-2-yl)benzyl]oxy}methyl)cyclopropyl]piperidin-1-yl}pyrimidine]	12
